Source: paper PMC6576746, “Rational discovery of dual-indication multi-target PDE/Kinase inhibitor for precision anti-cancer therapy using structural systems pharmacology” (PLoS Computational Biology, 2019)

What was measured:
Experiment in all cases: biochemical
Set-up in all cases: DiscoverX KinomeScan competition binding assay across human kinases; per cent of control at 10 and 100 uM
[1] = biological target: T1, ABL1(F317I)-nonphosphorylated (Homo sapiens, UniProt P00519, F317I); conditions: competition binding, % of control; read-out: Percent Control (100 uM Levosimendan)
T1 construct: nonphosphorylated
In short: (§1)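 KinomeScan competition binding was run across a human kinase panel at 10 μM and 100 μM levosimendan. Results are %control = (test − positive control)/(negative control − positive control) × 100.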

TRKB = biological target: T2, TRKB (Homo sapiens, UniProt Q16620); conditions: competition binding, % of control; read-out: Percent Control (100 uM Levosimendan)
T2 construct: gene NTRK2
In short: as §1

NLK = NLK (Homo sapiens, UniProt Q9UBE8); conditions: competition binding, % of control; read-out: Percent Control (100 uM Levosimendan)
In short: as §1

EPHB1 = EPHB1 (Homo sapiens, UniProt P54762); conditions: competition binding, % of control; read-out: Percent Control (100 uM Levosimendan)
In short: as §1

ERBB3 = ERBB3 (Homo sapiens, UniProt P21860); conditions: competition binding, % of control; read-out: Percent Control (100 uM Levosimendan)
In short: as §1

NEK11 = NEK11 (Homo sapiens, UniProt Q8NG66); conditions: competition binding, % of control; read-out: Percent Control (100 uM Levosimendan)
In short: as §1

[2] = biological target: EGFR(L747-E749del, A750P) (Homo sapiens, UniProt P00533, A750P/DEL747-749); conditions: competition binding, % of control; read-out: Percent Control (100 uM Levosimendan)
In short: as §1

CDKL5 = CDKL5 (Homo sapiens, UniProt O76039); conditions: competition binding, % of control; read-out: Percent Control (100 uM Levosimendan)
In short: as §1

EGFR(G719C) = EGFR(G719C) (Homo sapiens, UniProt P00533, G719C); conditions: competition binding, % of control
In short: as §1

p38-delta = biological target: T3, p38-delta (Homo sapiens, UniProt O15264); conditions: competition binding, % of control; read-out: Percent Control (100 uM Levosimendan)
T3 construct: gene MAPK13
In short: as §1

GRK2 = GRK2 (Homo sapiens, UniProt P25098); conditions: competition binding, % of control; read-out: Percent Control (100 uM Levosimendan)
In short: as §1

STK39 = STK39 (Homo sapiens, UniProt Q9UEW8); conditions: competition binding, % of control; read-out: Percent Control (100 uM Levosimendan)
In short: as §1

LOK = biological target: T4, LOK (Homo sapiens, UniProt O94804); conditions: competition binding, % of control; read-out: Percent Control (100 uM Levosimendan)
T4 construct: gene STK10
In short: as §1

DYRK2 = DYRK2 (Homo sapiens, UniProt Q92630); conditions: competition binding, % of control; read-out: Percent Control (100 uM Levosimendan)
In short: as §1

DYRK1B = DYRK1B (Homo sapiens, UniProt Q9Y463); conditions: competition binding, % of control; read-out: Percent Control (100 uM Levosimendan)
In short: as §1

HASPIN = HASPIN (Homo sapiens, UniProt Q8TF76); conditions: competition binding, % of control; read-out: Percent Control (100 uM Levosimendan)
In short: as §1

ERK4 = biological target: T5, ERK4 (Homo sapiens, UniProt P31152); conditions: competition binding, % of control; read-out: Percent Control (100 uM Levosimendan)
T5 construct: gene MAPK4
In short: as §1

CAMK1G = CAMK1G (Homo sapiens, UniProt Q96NX5); conditions: competition binding, % of control; read-out: Percent Control (100 uM Levosimendan)
In short: as §1

ACVR1 = ACVR1 (Homo sapiens, UniProt Q04771); conditions: competition binding, % of control
In short: as §1

[3] = read-out: Percent Control (10 uM Levosimendan)
[4] = read-out: Percent Control (100 uM Levosimendan)

Sequence of EGFR(G719C) (P00533 whole entry G719C): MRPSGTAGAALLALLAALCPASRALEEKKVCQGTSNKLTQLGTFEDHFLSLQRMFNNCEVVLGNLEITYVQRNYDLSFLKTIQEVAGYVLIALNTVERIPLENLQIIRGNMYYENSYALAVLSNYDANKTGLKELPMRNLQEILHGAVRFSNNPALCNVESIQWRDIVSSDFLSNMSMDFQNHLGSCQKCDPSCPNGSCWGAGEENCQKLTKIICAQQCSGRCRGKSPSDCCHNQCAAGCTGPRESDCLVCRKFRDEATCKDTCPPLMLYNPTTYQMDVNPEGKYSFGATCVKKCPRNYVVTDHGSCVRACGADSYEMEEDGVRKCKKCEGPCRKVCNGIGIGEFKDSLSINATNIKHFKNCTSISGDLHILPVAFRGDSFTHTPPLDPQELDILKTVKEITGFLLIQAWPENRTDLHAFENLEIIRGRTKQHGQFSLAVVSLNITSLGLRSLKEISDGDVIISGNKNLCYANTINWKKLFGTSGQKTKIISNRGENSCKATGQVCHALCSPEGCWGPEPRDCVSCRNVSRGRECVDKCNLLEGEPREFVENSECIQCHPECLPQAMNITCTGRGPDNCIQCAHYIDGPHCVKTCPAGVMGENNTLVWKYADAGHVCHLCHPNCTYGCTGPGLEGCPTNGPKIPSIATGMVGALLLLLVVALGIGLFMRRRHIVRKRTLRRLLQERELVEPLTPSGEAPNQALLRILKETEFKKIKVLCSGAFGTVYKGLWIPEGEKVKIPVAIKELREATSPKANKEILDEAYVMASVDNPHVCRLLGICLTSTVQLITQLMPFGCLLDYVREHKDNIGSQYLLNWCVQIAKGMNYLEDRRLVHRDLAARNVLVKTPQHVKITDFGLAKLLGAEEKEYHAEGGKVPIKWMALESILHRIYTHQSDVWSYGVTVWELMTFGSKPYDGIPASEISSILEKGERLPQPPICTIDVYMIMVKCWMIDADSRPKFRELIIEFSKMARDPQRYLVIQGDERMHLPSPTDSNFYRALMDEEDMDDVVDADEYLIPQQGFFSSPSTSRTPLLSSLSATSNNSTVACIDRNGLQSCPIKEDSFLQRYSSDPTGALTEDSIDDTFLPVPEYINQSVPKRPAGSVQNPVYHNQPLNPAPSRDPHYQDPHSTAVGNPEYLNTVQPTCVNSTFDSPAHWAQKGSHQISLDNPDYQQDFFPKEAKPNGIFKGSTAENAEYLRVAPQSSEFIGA
Sequence of ACVR1 (Q04771 whole entry): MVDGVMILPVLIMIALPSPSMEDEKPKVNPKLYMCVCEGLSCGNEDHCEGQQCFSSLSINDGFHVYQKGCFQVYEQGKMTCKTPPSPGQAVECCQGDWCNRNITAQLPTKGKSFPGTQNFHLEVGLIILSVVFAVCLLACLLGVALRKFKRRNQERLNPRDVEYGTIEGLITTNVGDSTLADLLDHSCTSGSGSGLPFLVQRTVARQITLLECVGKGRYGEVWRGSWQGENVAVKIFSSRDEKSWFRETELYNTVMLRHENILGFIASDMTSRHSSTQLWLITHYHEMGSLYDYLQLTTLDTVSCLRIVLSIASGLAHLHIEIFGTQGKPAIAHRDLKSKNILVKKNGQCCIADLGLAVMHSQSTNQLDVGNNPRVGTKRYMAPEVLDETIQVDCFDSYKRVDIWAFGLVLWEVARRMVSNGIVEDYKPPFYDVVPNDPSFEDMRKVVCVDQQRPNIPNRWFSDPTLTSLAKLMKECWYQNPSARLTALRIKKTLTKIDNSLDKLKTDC
T3 sequence (O15264 whole entry): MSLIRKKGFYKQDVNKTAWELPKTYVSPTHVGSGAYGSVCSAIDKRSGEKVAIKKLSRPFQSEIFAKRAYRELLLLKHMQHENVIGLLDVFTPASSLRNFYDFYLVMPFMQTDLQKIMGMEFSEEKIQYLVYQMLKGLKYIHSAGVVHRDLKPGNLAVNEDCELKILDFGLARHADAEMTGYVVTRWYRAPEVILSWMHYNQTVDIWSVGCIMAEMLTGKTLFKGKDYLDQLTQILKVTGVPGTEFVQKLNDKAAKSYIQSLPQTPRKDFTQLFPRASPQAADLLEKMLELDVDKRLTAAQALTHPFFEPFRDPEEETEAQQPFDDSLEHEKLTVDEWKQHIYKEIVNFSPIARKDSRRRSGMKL
T2 sequence (Q16620 whole entry): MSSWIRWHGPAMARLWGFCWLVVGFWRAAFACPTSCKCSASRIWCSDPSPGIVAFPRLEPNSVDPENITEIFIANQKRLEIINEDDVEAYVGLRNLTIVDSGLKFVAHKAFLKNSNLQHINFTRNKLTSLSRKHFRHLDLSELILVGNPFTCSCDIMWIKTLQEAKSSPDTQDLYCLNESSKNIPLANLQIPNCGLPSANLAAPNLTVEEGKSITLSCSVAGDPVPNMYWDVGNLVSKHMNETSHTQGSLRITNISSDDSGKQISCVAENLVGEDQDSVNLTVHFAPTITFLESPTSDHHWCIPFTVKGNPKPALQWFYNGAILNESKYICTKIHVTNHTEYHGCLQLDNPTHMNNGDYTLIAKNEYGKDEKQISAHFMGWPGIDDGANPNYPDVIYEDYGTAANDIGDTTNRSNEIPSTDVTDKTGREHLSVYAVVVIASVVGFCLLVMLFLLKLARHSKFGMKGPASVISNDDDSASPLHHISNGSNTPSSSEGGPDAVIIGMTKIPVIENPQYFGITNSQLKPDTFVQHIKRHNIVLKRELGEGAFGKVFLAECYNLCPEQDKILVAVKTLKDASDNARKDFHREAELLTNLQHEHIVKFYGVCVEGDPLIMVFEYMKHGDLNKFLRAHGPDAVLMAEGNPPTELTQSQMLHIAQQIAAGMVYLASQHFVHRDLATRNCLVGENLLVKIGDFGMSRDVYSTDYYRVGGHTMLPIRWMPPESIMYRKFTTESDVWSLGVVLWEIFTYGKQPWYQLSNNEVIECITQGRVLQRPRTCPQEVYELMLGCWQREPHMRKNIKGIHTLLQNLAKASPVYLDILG
T1 sequence (P00519 whole entry F317I): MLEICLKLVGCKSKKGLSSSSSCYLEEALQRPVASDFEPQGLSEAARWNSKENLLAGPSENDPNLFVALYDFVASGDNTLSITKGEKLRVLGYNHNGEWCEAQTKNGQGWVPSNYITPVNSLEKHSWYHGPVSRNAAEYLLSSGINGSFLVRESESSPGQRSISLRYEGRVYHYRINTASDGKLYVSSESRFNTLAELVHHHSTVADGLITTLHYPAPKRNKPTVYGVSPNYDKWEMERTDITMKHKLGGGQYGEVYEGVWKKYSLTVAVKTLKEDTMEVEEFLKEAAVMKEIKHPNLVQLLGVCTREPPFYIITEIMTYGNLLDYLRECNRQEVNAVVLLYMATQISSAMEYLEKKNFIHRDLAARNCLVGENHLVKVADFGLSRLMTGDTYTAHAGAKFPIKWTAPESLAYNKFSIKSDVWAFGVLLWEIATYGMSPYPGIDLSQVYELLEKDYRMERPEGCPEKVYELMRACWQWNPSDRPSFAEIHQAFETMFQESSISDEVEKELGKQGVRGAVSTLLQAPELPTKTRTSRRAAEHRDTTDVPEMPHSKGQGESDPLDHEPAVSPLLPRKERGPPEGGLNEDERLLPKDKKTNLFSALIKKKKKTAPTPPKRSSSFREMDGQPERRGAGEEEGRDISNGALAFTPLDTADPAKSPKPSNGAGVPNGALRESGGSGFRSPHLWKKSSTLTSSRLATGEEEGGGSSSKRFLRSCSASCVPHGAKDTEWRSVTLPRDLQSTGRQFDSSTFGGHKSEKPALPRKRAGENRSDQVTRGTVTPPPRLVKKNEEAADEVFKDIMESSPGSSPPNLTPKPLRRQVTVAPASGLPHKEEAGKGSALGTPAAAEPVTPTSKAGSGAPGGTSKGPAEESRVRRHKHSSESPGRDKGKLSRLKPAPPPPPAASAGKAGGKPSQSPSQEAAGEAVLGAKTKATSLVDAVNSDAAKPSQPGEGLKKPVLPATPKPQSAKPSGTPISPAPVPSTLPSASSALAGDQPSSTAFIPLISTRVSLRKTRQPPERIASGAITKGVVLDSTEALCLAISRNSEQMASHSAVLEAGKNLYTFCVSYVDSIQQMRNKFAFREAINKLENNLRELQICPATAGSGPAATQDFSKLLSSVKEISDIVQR
Sequence of GRK2 (P25098 whole entry): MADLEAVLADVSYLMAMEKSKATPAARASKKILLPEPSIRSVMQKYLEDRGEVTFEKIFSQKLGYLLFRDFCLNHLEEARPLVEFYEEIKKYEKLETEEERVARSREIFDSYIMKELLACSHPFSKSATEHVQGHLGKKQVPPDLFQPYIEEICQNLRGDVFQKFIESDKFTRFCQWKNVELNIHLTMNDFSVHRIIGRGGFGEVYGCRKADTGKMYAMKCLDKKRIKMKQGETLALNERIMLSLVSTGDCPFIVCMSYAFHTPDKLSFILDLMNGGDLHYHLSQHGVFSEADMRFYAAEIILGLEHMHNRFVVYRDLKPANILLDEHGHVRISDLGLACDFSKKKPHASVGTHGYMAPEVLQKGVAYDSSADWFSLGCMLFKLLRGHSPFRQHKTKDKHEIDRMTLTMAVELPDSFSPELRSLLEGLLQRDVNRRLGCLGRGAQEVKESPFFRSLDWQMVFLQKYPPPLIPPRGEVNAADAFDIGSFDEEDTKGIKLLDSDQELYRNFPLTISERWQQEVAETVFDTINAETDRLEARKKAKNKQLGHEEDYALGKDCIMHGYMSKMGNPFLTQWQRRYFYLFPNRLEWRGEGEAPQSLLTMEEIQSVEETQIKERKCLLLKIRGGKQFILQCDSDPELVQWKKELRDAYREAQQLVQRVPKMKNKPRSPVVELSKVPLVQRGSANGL

Compound: C[C@@H]1CC(=O)NN=C1c1ccc(NN=C(C#N)C#N)cc1 [levosimendan]
- remaining binding at 100 µM [1]: 100%
- remaining binding at 100 µM (TRKB): 81%
- remaining binding at 100 µM (NLK): 100%
- remaining binding at 100 µM (EPHB1): 96%
- remaining binding at 100 µM (ERBB3): 75%
- remaining binding at 100 µM (NEK11): 100%
- remaining binding at 100 µM [2]: 64%
- remaining binding at 100 µM (CDKL5): 94%
- remaining binding at 10 µM (EGFR(G719C); [3]): 49%
- remaining binding at 100 µM (EGFR(G719C); [4]): 10%
- remaining binding at 100 µM (p38-delta): 100%
- remaining binding at 100 µM (GRK2): 100%
- remaining binding at 100 µM (STK39): 100%
- remaining binding at 100 µM (LOK): 70%
- remaining binding at 100 µM (DYRK2): 85%
- remaining binding at 100 µM (DYRK1B): 100%
- remaining binding at 100 µM (HASPIN): 69%
- remaining binding at 100 µM (ERK4): 100%
- remaining binding at 100 µM (CAMK1G): 62%
- remaining binding at 10 µM (ACVR1; [3]): 55%
- remaining binding at 100 µM (ACVR1; [4]): 6.5%
